# Experiments:
# [1] = molecular target: T1, B-RAF V600E (Homo sapiens, UniProt P15056, V600E); assay: Target protein degradation, assay C: T-Rex 293 cells, HA-BRAF_V600E, 384 well format; type: cell-based; settings: T-Rex 293 HA-BRAF_V600E cells, 24 hours, Examples 83-269; for DC50: Assay C; for Dmax: T-REx-293, Assay C
# T1 construct: expressed in transfected cells; host or cells: T-Rex 293 cells (Invitrogen #R71007)
# Procedure, shortened: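 After 24 h exposure to an 11-point 1:3 series (300 nM–5 pM, 0.5% DMSO), fixed T-Rex 293 cells carrying HA-BRAF V600E (induced with 1 ng/mL doxycycline) were stained anti-HA and imaged. DC50 and Dmax were derived from BRAF intensity relative to control, and cytotoxicity from nuclear counts.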
# [2] = molecular target: T2, B-RAF G466V (Homo sapiens, UniProt P15056, G466V); assay: Target protein degradation, assay D: T-Rex 293 cells, HA-BRAF_G466V, 384 well format; type: cell-based; settings: T-Rex 293 HA-BRAF_G466V cells, 24 hours, Examples 83-269; for DC50: Assay D; for Dmax: T-REx-293, Assay D
# T2 construct: expressed in transfected cells; host or cells: T-Rex 293 cells (Invitrogen #R71007)
# T2 sequence (P15056 whole entry G466V): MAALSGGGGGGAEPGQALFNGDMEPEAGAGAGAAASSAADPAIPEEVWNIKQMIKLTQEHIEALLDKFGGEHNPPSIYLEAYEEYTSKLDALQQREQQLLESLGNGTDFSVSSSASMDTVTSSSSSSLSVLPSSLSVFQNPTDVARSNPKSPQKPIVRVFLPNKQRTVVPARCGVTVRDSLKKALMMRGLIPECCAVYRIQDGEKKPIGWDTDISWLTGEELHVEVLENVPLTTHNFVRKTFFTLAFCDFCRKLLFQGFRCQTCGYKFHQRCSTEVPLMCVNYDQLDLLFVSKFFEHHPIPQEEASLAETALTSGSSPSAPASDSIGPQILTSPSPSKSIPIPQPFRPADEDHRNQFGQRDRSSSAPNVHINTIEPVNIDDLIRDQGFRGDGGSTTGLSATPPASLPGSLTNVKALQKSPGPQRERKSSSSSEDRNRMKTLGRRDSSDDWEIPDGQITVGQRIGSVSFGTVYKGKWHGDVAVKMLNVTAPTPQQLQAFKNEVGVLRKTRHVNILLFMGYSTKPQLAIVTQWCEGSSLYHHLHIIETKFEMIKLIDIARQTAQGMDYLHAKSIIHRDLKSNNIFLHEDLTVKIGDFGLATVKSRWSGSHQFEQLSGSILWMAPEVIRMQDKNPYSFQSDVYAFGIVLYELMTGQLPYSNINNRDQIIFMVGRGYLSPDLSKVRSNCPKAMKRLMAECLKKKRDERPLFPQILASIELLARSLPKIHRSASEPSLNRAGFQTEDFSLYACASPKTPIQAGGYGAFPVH
# Procedure, shortened: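 Degradation measured by high-content imaging of anti-HA immunofluorescence in fixed T-Rex 293 cells carrying inducible HA-BRAF G466V (1 ng/mL doxycycline), after 24 h PROTAC exposure at 37 °C over 300 nM–5 pM (1:3, 11 points, 0.5% DMSO). Outputs DC50 and Dmax as % of control; nuclei counts against DMSO wells gauge toxicity.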
# T1 sequence (P15056 whole entry V600E): as the sequence (P15056 whole entry G466V) above, with V466G, V600E counted along it
Compound,DC50 [1],Dmax [1],DC50 [2],Dmax [2]
"N#Cc1c(NS(=O)(=O)N2CC[C@@H](F)C2)ccc(F)c1Oc1ccc2ncn(-c3ccc(N4CCC(CN5CCC6(CC5)CCN(c5ccc7c(c5)C(=O)N(C5CCC(=O)NC5=O)C7=O)CC6)CC4)nc3)c(=O)c2c1 (stereo partly drawn) [Example 146, (3R)-N-{2-cyano-3-[(3-{6-[4-({9-[2-(2,6-dioxopiperidin-3-yl)-1,3-dioxo-2,3-dihydro-1H-isoindol-5-yl]-3,9-diazaspiro[5.5]undecan-3-yl}methyl)piperidin-1-yl]pyridin-3-yl}-4-oxo-3,4-dihydroquinazolin-6-yl)oxy]-4-fluorophenyl}-3-fluoropyrrolidine-1-sulfonamide]",0.005 to 0.05 µM,35 to 70%,0.001 to 0.01 µM,35 to 70%
"CN(c1ccc2c(c1)CN([C@H]1CCC(=O)NC1=O)C2=O)C1CCC2(CC1)CCN(CC1CCN(c3ccc(-n4cnc5ccc(Oc6c(F)ccc(NS(=O)(=O)N7CC[C@@H](F)C7)c6C#N)cc5c4=O)cc3)CC1)CC2 [Example 222, (3R)-N-[2-cyano-3-({3-[4-(4-{[9-({2-[(3S)-2,6-dioxopiperidin-3-yl]-1-oxo-2,3-dihydro-1H-isoindol-5-yl}(methyl)amino)-3-azaspiro[5.5]undecan-3-yl]methyl}piperidin-1-yl)phenyl]-4-oxo-3,4-dihydroquinazolin-6-yl}oxy)-4-fluorophenyl]-3-fluoropyrrolidine-1-sulfonamide]",0.05 to 0.5 µM,35 to 70%,0.001 to 0.01 µM,35 to 70%
"N#Cc1c(NS(=O)(=O)N2CC[C@@H](F)C2)ccc(F)c1Oc1ccc2ncn(-c3cnc(C4(N5CCN(CC6CN(c7ccc(NC8CCC(=O)NC8=O)cc7F)C6)CC5)CC4)nc3)c(=O)c2c1 (stereo partly drawn) [Example 108, (3R)-N-[2-cyano-3-({3-[2-(1-{4-[(1-{4-[(2,6-dioxopiperidin-3-yl)amino]-2-fluorophenyl}azetidin-3-yl)methyl]piperazin-1-yl}cyclopropyl)pyrimidin-5-yl]-4-oxo-3,4-dihydroquinazolin-6-yl}oxy)-4-fluorophenyl]-3-fluoropyrrolidine-1-sulfonamide]",0.005 to 0.05 µM,35 to 70%,0.001 to 0.01 µM,≤ 35%
"N#Cc1c(NS(=O)(=O)N2CC[C@@H](F)C2)ccc(F)c1Oc1ccc2ncn(-c3ccc(N4CCC(CN5CC6(C5)CN(c5ccc7c(c5)CN(C5CCC(=O)NC5=O)C7=O)C6)CC4)cc3)c(=O)c2c1 (stereo partly drawn) [Example 85, (3R)-N-{2-cyano-3-[(3-{4-[4-({6-[2-(2,6-dioxopiperidin-3-yl)-1-oxo-2,3-dihydro-1H-isoindol-5-yl]-2,6-diazaspiro[3.3]heptan-2-yl}methyl)piperidin-1-yl]phenyl}-4-oxo-3,4-dihydroquinazolin-6-yl)oxy]-4-fluorophenyl}-3-fluoropyrrolidine-1-sulfonamide]",0.005 to 0.05 µM,35 to 70%,0.001 to 0.01 µM,35 to 70%
"C[C@H]1CN(CC2CCN(c3ccc4c(c3F)CN([C@@H]3CCC(=O)NC3=O)C4=O)CC2)CCN1c1ccc(-n2cnc3ccc(Oc4c(F)ccc(NS(=O)(=O)N5CC[C@@H](F)C5)c4C#N)cc3c2=O)nc1 [Example 214, (3R)-N-{2-cyano-3-[(3-{5-[(2S)-4-[(1-{2-[(3R)-2,6-dioxopiperidin-3-yl]-4-fluoro-1-oxo-2,3-dihydro-1H-isoindol-5-yl}piperidin-4-yl)methyl]-2-methylpiperazin-1-yl]pyridin-2-yl}-4-oxo-3,4-dihydroquinazolin-6-yl)oxy]-4-fluorophenyl}-3-fluoropyrrolidine-1-sulfonamide]",> 0.5 µM,,0.01 to 0.03 µM,≤ 35%
